Data taken from PubChem BioAssay AID489020 (Sanford-Burnham Center for Chemical Genomics, 2010).
pIC50: −log10 of the molar value. The source made the active and inactive calls.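 How the source made its calls: active means mean IC50, the dose halving TNF-driven NF-kB light signal, at or below a set limit; inactive means the rest.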

These molecules were tested on HEK-293T NF-kB-Luc, TNFa-induced, luminescence, 14 h (assay: inhibitors of TNFa-induced NF-kB reporter, dose response, counter-screen for BCR/TCR NF-kB inhibitor project, cell-based, HEK-293T NF-kB-Luc, luminescence, hits from both screens (AID 489020);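 further: TNF-alpha stimulus at 0.1 ng/mL added with the seeded cells; selectivity counterscreen for hits from B- and T-cell receptor NF-kB screens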).

SMILES | pIC50 | IC50
N=c1c2c(n(Cc3ccc(Br)cc3)c3c1CCC3)CCCC2 | 5.37 | 
COc1ccccc1C(=O)Nc1nc(-c2ccc(S(=O)(=O)N3CCOCC3)cc2)cs1 | 5.93 | 
Cc1ccc(OCCN2CCN(c3ncnc4sc(C)c(C)c34)CC2)cc1 | > 6.80 | 
Cn1nccc1C(=O)NC1CCCc2c1cnn2-c1ccc(F)cc1F (stereo not given) | > 6.80 | 
COc1ccc(NS(=O)(=O)c2cccc(NC(=O)c3ccc(Cl)nc3)c2)cc1 | 6.51 | 
c1ccc(-c2ccc(-c3nc(-c4ccccn4)no3)cc2)cc1 | 5.77 | 
CCCCCCn1c2c(c(=N)c3c1CCC3)CCC2 | 6.02 | 
O=C1/C(=C/c2ccccc2)C[C@@]2(O)[C@H]3Cc4ccc(O)c5c4[C@@]2(CCN3CC2CC2)C1O5 (stereo not given in full) | 5.06 | 
COc1ccc(OC)c(C2C3=C(COC3=O)Nc3cc4c(cc32)OCO4)c1 (stereo not given) |  | > 80000 nM (inactive)
O=C(CCl)N1CCCC1c1ccc2c(c1)OCCO2 (stereo not given) | 5.03 | 
CCCCCc1ccc(OCCCC[n+]2cccc(C)c2)c(CCCCC)c1 | 5.22 | 
C=CCn1c(C)cc(C(=O)CN2C(=O)c3ccccc3S2(=O)=O)c1C | 6.77 | 
C[C@H](NC(=O)c1nc[nH]c1C(=O)N[C@@H](C)C(=O)OCc1ccccc1)C(=O)OCc1ccccc1 |  | > 80000 nM (inactive)
COc1cc(CSc2nnnn2-c2ccc(C)cc2)cc(OC)c1OC | 6.33 | 
C[C@@H]1O[C@@H](O[C@@H]2C=C3CCC4C(CC[C@]5(C)[C@@H](c6ccc(=O)oc6)CC[C@]45O)[C@@]3(C)CC2)[C@H](O)[C@H](O)[C@H]1O (stereo not given in full) | > 6.80 | 
CCCCCCCCCCOC(=O)Cn1c(COc2ccccc2OC)[n+](C)c2ccccc21 | 5.51 | 
CCOc1ccc(S(=O)(=O)NCc2ccncc2)cc1 | 6.68 | 
C[C@@H]1C[C@@H]2O[C@H]2/C=C\C=C\C(=O)Cc2c(Cl)c(O)cc(O)c2C(=O)O1 | 5.12 | 
CC1CCN(c2nc3ccc(C(=O)O)cc3s2)CC1 | 5.39 | 
Cc1ccc(C(=O)CN2C(=O)c3ccccc3S2(=O)=O)cc1 | 5.72 | 
COc1ccc(-c2cc3nc(C)n(N)c(=O)c3s2)cc1 | 6.06 | 
CCCCCCCCNc1ncnc2ccccc12 | > 6.80 | 
CCc1cc2c(Sc3nc4ccccc4s3)ncnc2s1 |  | 21300 nM (inactive)
CCN1/C(=C/c2ccc3cc(C)ccc3[n+]2CC)Sc2ccccc21 | 6.49 | 
Cn1nc(CC(=O)Nc2ccc3c(c2)OCCO3)c2ccccc2c1=O | 6.22 | 

SMILES | pIC50 | IC50
O=C(Nc1cccc(C(=O)O)c1)Nc1ccc2c(c1)OCO2 | 5.66 | 
C=C1C(=O)O[C@@H]2C[C@@H](C)[C@@H]3C=CC(=O)[C@@]3(C)[C@@H](OC(C)=O)[C@H]12 |  | > 80000 nM (inactive)
CCn1c(C)nc2cc(-c3nc4n(n3)Cc3ccccc3-4)ccc21 | 6.62 | 
CC(Nc1ncnc2sccc12)c1ccccc1 (stereo not given) | 6.22 | 
Cc1cc(CSc2ccccc2)ccc1NC(=O)c1ccc(CN2CCOCC2)cc1 | 6.59 | 
CCOc1ccc(/C=C2\SC(=S)N(CCC(=O)O)C2=O)cc1 |  | 34200 nM (inactive)
Cn1nccc1C(=O)NC1CCCc2c1cnn2-c1ccccc1F (stereo not given) | > 6.80 | 
C=CC(=O)Nc1ccc(Nc2nc(NC3CCC(N(C)C)CC3)nc3c2ncn3C(C)C)cc1 (stereo not given) | 6.39 | 
CCOc1ccc(-n2c(-c3ccc(OC)cc3)c[n+]3c2CCCCC3)cc1 | 5.97 | 
Cc1cc(NNC(=O)Nc2cccc(Cl)c2)nc2c1c(C)nn2C | 6.33 | 
COc1cccc2c1C(=O)c1c(O)c3c(c(O)c1C2=O)C[C@@](O)(C(=O)CO)C[C@@H]3O[C@H]1C[C@H](N)[C@H](O)[C@H](C)O1 |  | 26900 nM (inactive)
COc1ccc(C[C@H]2NC[C@H](O)[C@H]2OC(C)=O)cc1 | > 6.80 | 
Cc1ccc(-c2csc(NC(=O)C3CCN(S(=O)(=O)c4cccs4)CC3)n2)cc1 | 5.67 | 
Cn1nc(C(C)(C)C)cc1C(=O)NCc1ccc(N2CCCC2=O)cc1 | 5.70 | 
Nc1nc(F)nc2c1ncn2[C@@H]1O[C@H](CO)[C@@H](O)[C@H]1O | 5.14 | 
C=C1C(O)[C@@H]2O[C@]3(CC[C@H](/C=C/C(C)[C@@H]4CC(C)=CC5(O[C@H](C[C@@](C)(O)C(=O)O)CCC5O)O4)O3)CC[C@H]2O[C@@H]1C(O)CC(C)[C@H]1OC2(CCCCO2)CCC1C (stereo not given in full) | 6.51 | 
CCN(CC)S(=O)(=O)c1ccc(Oc2ccc(S(=O)(=O)N(CC)CC)cc2)cc1 | 6.34 | 
Nc1nc(Cl)nc2c1ncn2C1CC(O)C(CO)O1 (stereo not given) |  | > 80000 nM (inactive)
O=C(O)CSCC(=O)Nc1ccc(C2CCCCC2)cc1 | 6.33 | 
CC1CCc2c(sc(NC(=O)CSc3ncn[nH]3)c2C#N)C1 (stereo not given) | 6.21 | 
O=C(Nc1ccc(Cl)cc1)Nc1cccc(C(=O)O)c1 | 4.97 | 
CC(C)c1ccc(-c2nnn(CCC(=O)O)n2)cc1 | 6.42 | 
N=c1ccn2c(n1)O[C@H]1[C@@H](CO)[C@H](O)O[C@H]12 |  | > 80000 nM (inactive)
CC(=O)OC[C@]12CCC(C)=C[C@H]1O[C@@H]1[C@H](O)[C@@H](OC(C)=O)[C@@]2(C)[C@]12CO2 | > 6.80 | 
Cc1nn(C(C)(C)C)c(C)c1/C=N/OC(=O)Nc1ccc(Cl)cc1 | > 6.80 | 

SMILES | pIC50 | IC50
Cc1cc(Cl)c(S(=O)(=O)N2CCCCCC2)cc1OCC(=O)NC1CCCCC1 | 6.62 | 
O=C(Nc1ccc([N+](=O)[O-])cc1)C(=O)Nc1cccc(C(=O)O)c1 | 5.37 | 
OCCCNc1nccc(-c2cc(Nc3cccc(Cl)c3)ncn2)n1 | 6.26 | 
Cc1ccnc(NC(=O)CCCOc2cc(=O)n(C)c3ccccc23)c1 | 5.23 | 
CCC(C)(C)c1ccc(OCCCC[n+]2ccc(C)cc2)c(C(C)(C)CC)c1 | 5.09 | 
CC(=O)O[C@H]1[C@H]2O[C@]23[C@@H]2CC[C@]4(O)C[C@@H](O)CC[C@]4(C)C2CC[C@]3(C)[C@H]1c1ccc(=O)oc1 (stereo not given in full) | > 6.80 | 
COC(=O)CCn1nnc(-c2ccc(C(C)C)cc2)n1 | 6.57 | 
COc1ccc(-c2c[n+]3c(n2-c2ccc(C)cc2)CCCCC3)cc1 | 5.79 | 
Cc1cc(Cl)c(S(=O)(=O)N2CCN(c3ccc(F)cc3)CC2)cc1OCC(=O)NC1CCCCC1 | > 6.80 | 
C#CC(=O)N(c1ccc(OC)c(OC)c1)C(C(=O)NC1CCCC1)c1cccs1 (stereo not given) | 5.32 | 
O=C(/C=C/c1ccccc1)Nc1cccc(C(=O)O)c1 | 5.59 | 
CCCCCn1c(=O)[nH]c2cc(C(=O)N3CCN(Cc4ccc5c(c4)OCO5)CC3)ccc2c1=O | > 6.80 | 
COc1ccc(/C=C2\SC(=O)N(CCCC(=O)Nc3cc(Cl)ccc3C(=O)O)C2=O)cc1 | 5.95 | 
COc1ccc(/C=C/c2cc(-c3ccc(C)cc3)o[n+]2C)cc1 | 5.17 | 
CCCCCCn1ccc(=N)cc1 | 4.88 | 
CC(C)Cc1cc(C(C)(C)C)ccc1OC(=S)N(C)C |  | > 80000 nM (inactive)
Cc1cc2sc3ccc(C#CC4(O)CCCCC4)cc3c(=O)c2cc1C | > 6.80 | 
O=C(CCl)N=c1sccn1Cc1ccccc1Cl | 5.00 | 
COC1=CC(=O)[C@]2(C=C1OC)OC[C@@H]1Oc3c(ccc4c3C=CC(C)(C)O4)C(=O)[C@@H]12 | 6.21 | 
CCCCCCCCn1ccc(=N)cc1 | 4.97 | 
C=C1C(=O)O[C@@H]2C[C@@H](C)[C@@H]3C=CC(=O)[C@@]3(C)[C@@H](O)[C@H]12 |  | > 80000 nM (inactive)
O=C(CN1C(=O)c2ccccc2S1(=O)=O)c1ccc2c(c1)OCCCO2 | > 6.80 | 
O=C(CCl)N=c1sccn1Cc1ccc(Cl)cc1Cl |  | 21000 nM (inactive)
N=c1c2c(-c3ccccc3)c(-c3ccccc3)n(Cc3ccccc3)c2ncn1CCCn1ccnc1 | 5.16 | 
CC1CCCN(c2ccc([N+](=O)[O-])cc2C(=O)c2ccccc2)C1 (stereo not given) | 5.00 | 
